Reference: patent US11419921B2, “Methods of treating neurological disorders” (EnClear Therapies, Inc., priority 2018, dated 2022)

System: (GR)10
Experiment: (GR)10 digestion with immobilized proteases (NHS-activated agarose resin) in PBS
Format: biochemical
Conditions: normalized
Procedure: Protease solutions were prepared at 2 mg/mL in sterile PBS with calcium, magnesium and 200 μL ([…]) were applied to 100 μL of pre-washed NHS-activated agarose resin in 0.8 mL centrifuge columns. Reactions were left 1.5 hour at room temperature with end-to-end mixing, after which resins were washed with 12 resin volumes of PBS. Unreacted sites were blocked with 500 μL of 1M ethanolamine for 15 minutes at room temperature and resins were further washed with 24 resin volumes. Resins were stored at 4 degrees in 500 μL of PBS containing 0.05% sodium azide as preservative.
110 μL of 50 μM (GR)10 dipeptide repeats prepared in PBS were added to each immobilized protease and incubated 5 minutes at room temperature with end-to-end mixing. Columns were spun down 1 minute at 1,000 Xg to recover digested GR dipeptides. Columns were washed with 110 μL of PBS to increase (GR)10 recovery. This procedure was repeated with 60 minutes digestion time. 100 μL of each samples were transferred to a new tube and 5 μL of 10% TFA followed by 300 μL of Dilution Solution were added. The reaction mixtures were analyzed by LC/MS to determine the concentration of GR repeats of different lengths.

[1] = resin wash from 60 min reaction

Elastase: protease that cleaves at the carboxyl side of small hydrophobic amino acids; in Table 22 also immobilized on agarose resin
(GR)1 (Immobilized - 5 min reaction): 33.1 µM | (GR)2 (Immobilized - 5 min reaction): 4.8 µM | (GR)3 (Immobilized - 5 min reaction): 0.0 µM | (GR)4 (Immobilized - 5 min reaction): 0.0 µM | (GR)5 (Immobilized - 5 min reaction): 0.0 µM | (GR)6 (Immobilized - 5 min reaction): 0.0 µM | (GR)8 (Immobilized - 5 min reaction): 0.0 µM | (GR)10 (Immobilized - 5 min reaction): 0.0 µM | (GR)1 (immobilized - 60 min reaction): 48.1 µM | (GR)2 (immobilized - 60 min reaction): 0.0 µM | (GR)3 (immobilized - 60 min reaction): 0.0 µM | (GR)4 (immobilized - 60 min reaction): 0.0 µM | (GR)5 (immobilized - 60 min reaction): 0.0 µM | (GR)6 (immobilized - 60 min reaction): 0.0 µM | (GR)8 (immobilized - 60 min reaction): 0.0 µM | (GR)10 (immobilized - 60 min reaction): 0.0 µM | (GR)1 (resin wash from 5 min reaction): 13.8 µM | (GR)2 (resin wash from 5 min reaction): 0.0 µM | (GR)3 (resin wash from 5 min reaction): 0.0 µM | (GR)4 (resin wash from 5 min reaction): 0.0 µM | (GR)5 (resin wash from 5 min reaction): 0.0 µM | (GR)6 (resin wash from 5 min reaction): 0.0 µM | (GR)8 (resin wash from 5 min reaction): 0.0 µM | (GR)10 (resin wash from 5 min reaction): 0.0 µM | (GR)1 [1]: 18.5 µM | (GR)2 [1]: 0.0 µM | (GR)3 [1]: 0.0 µM | (GR)4 [1]: 0.0 µM | (GR)5 [1]: 0.0 µM | (GR)6 [1]: 0.0 µM | (GR)8 [1]: 0.0 µM | (GR)10 [1]: 0.0 µM
